The results in this text go back to ChEMBL document CHEMBL4831518, “Structure-aided optimization of non-nucleoside M. tuberculosis thymidylate kinase inhibitors” (Eur J Med Chem, 2021).

Some results are limits rather than exact numbers.

Data set [1] concerns the target T1, Thymidylate kinase (Mycobacterium tuberculosis, UniProt P9WKE1).
T1 sequence (P9WKE1 whole entry): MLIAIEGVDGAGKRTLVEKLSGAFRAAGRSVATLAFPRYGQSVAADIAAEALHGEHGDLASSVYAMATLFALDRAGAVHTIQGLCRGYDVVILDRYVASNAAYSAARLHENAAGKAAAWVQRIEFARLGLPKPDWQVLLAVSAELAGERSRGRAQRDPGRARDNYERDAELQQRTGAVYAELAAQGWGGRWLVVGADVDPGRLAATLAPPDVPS
The experiment in a line: Inhibition of Mycobacterium tuberculosis H37Rv TMPK expressed in Escherichia coli by coupled enzyme based spectrophotometric analysis.

The next data set concerns MRC5. The experiment in a line: Cytotoxicity against human MRC-5 cells assessed as reduction in cell growth measured after 3 days by resazurin dye based fluorometric analysis. Conditions: MRC5, 72 h; call rule not given here.
The subject of data set [2] is Mycobacterium tuberculosis. The experiment in a line: Antimycobacterial activity against Mycobacterium tuberculosis H37Rv ATCC 27294 assessed as inhibition of bacterial growth in presence of glucose by broth microdilution method. Format: functional. On the technique in general: Dilution methods test growth across graded concentrations, often in twofold steps.
The test system of data set [3] is Mycobacterium tuberculosis. The experiment in a line: Antibacterial activity against Mycobacterium tuberculosis H37Rv assessed as inhibition of bacterial growth in presence of efflux pump inhibitor verapamil and glucose […] by microdilution assay. Format: functional.
In data set [4] the test system is Mycobacterium tuberculosis. The experiment in a line: Antibacterial activity againstMycobacterium tuberculosis H37Rv assessed as inhibition of bacterial growth in presence of efflux pump inhibitor PAbetaN and glucose […] by microdilution assay. Format: functional.
Data set [5] deals with T2, Thymidylate kinase (Homo sapiens, UniProt P23919).
T2 sequence (P23919 whole entry): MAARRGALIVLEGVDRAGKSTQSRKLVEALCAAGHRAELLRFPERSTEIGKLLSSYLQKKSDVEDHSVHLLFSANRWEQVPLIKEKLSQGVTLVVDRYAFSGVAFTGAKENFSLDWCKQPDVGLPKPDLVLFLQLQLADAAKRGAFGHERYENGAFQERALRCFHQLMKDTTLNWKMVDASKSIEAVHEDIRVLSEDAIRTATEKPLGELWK
The data set can be described thus: Inhibition of human TMPK at 40 uM.

The target in data set [6] is T2, Thymidylate kinase. The data set can be described thus: Inhibition of human TMPK at 31 uM.
Setting [7] is: Mycobacterium tuberculosis, H37Rv ATCC 27294, read-out: MIC.
[8] abbreviates: Mycobacterium tuberculosis, H37Rv, read-out: MIC.

Take `Cc1cn(C2CCN(Cc3cccc(Oc4ccccc4)c3)CC2)c(=O)[nH]c1=O`: on Thymidylate kinase [1], the half-maximal inhibitory concentration (IC50) – broadly, the midpoint of a concentration-inhibition curve – is 6.1 µM.

On to `Cc1cn(C2CCN(Cc3cccc(Oc4cccc(F)c4)c3)CC2)c(=O)[nH]c1=O`, for which the IC50 at Thymidylate kinase [1] was 2.9 µM; in the data set with MRC5 it was above 64 µM. For the same compound, the minimal inhibitory concentration (MIC) (as a rule, the lowest concentration found to suppress growth) in data set [2] (setting [7]) is 25 µM.

In the case of `Cc1cn(C2CCN(Cc3ccnc(Oc4ccccc4)c3)CC2)c(=O)[nH]c1=O`, the IC50 is 10.2 µM at Thymidylate kinase [1] and above 64 µM with MRC5. The MIC in data set [2] (setting [7]) was above 50 µM.

For `Cc1cn(C2CCN(Cc3cccc(Oc4cccc(C(F)(F)F)c4)c3)CC2)c(=O)[nH]c1=O`, the figures for the IC50 against Thymidylate kinase [1] and in the data set with MRC5 were 0.6 µM and 12.4 µM, respectively. Also, in data set [2] (setting [7]), the minimum inhibitory concentration (MIC) stood at 19 µM.

For `COc1cccc(Oc2cccc(CN3CCC(n4cc(C)c(=O)[nH]c4=O)CC3)c2)c1`, the concentration for half-maximal inhibition (IC50) against Thymidylate kinase [1] is 1.2 µM; with MRC5 it was 25.3 µM. Moreover, the minimum inhibitory concentration (MIC) in data set [2] (setting [7]) amounted to 25 µM.

Regarding `Cc1cn(C2CCN(Cc3cccc(OC4CCCC4)c3)CC2)c(=O)[nH]c1=O`, the half-maximal inhibitory concentration (IC50) was 32 µM against Thymidylate kinase [1] and 30.3 µM with MRC5. For the same compound, in data set [2] (setting [7]), the MIC was above 50 µM.

For `COc1ccc(Oc2cccc(CN3CCC(n4cc(C)c(=O)[nH]c4=O)CC3)c2)cc1`, the IC50 against Thymidylate kinase [1] amounted to 10.5 µM; in the data set with MRC5, 28 µM. Further, the minimal inhibitory concentration (MIC) in data set [3] (setting [8]) worked out at 15.6 µg/mL; in data set [4], 15.6 µg/mL; in data set [2], 31.25 µM.

With `Cc1cn(C2CCN(Cc3cccc(Oc4cccnc4)c3)CC2)c(=O)[nH]c1=O`, the IC50 at Thymidylate kinase [1] was 27 µM; in the data set with MRC5 it was above 64 µM. In addition, in data set [2] (setting [7]), the minimal inhibitory concentration (MIC) is above 50 µM.

Regarding `Cc1cn(C2CCN(Cc3cccc(Oc4ccc(Cl)c(C(F)(F)F)c4)c3)CC2)c(=O)[nH]c1=O`, the IC50 at Thymidylate kinase [1] came to 1.1 µM; in the data set on MRC5, 5.28 µM. For the same compound, the “inhibition (INH)” value at Thymidylate kinase [5] is on record as “Not Active”. The MIC in data set [2] (setting [7]) was 25 µM.

For `Cc1cn(C2CCN(Cc3cccc(Oc4ccc(Cl)cc4)c3)CC2)c(=O)[nH]c1=O`, the IC50 was found to be 6.9 µM against Thymidylate kinase [1] and 25.1 µM with MRC5. The minimal inhibitory concentration (MIC) in data set [2] (setting [7]) was 12.5 µM.

For `Cc1cn(C2CCN(Cc3cccc(Oc4cccc(Cl)c4)c3)CC2)c(=O)[nH]c1=O`, the IC50 was 0.89 µM on Thymidylate kinase [1] and 21 µM in the data set with MRC5. Further, the MIC in data set [2] (setting [7]) turned out to be 12.5 µM.

In the case of `Cc1cn(C2CCN(Cc3cccc(Oc4cc(F)cc(F)c4)c3)CC2)c(=O)[nH]c1=O`, the IC50 on Thymidylate kinase [1] is 2.8 µM; in the data set on MRC5, above 64 µM. For the same compound, the MIC in data set [2] (setting [7]) is above 50 µM.

In the case of `Cc1cn(C2CCN(Cc3cccc(Oc4ccncc4)c3)CC2)c(=O)[nH]c1=O`, half-maximal inhibition at Thymidylate kinase [1] (IC50) required 20 µM.

As for `Cc1cn(C2CCN(Cc3cc(Oc4ccccc4)ccn3)CC2)c(=O)[nH]c1=O`, the results for the 50% inhibitory concentration (IC50) against Thymidylate kinase [1] and with MRC5 were 8.7 µM and above 64 µM, respectively. Also, the MIC in data set [2] (setting [7]) was above 50 µM.

Compound `Cc1cn(C2CCN(Cc3cccc(Oc4cc(C(F)(F)F)cc(C(F)(F)F)c4)c3)CC2)c(=O)[nH]c1=O` showed an IC50 at Thymidylate kinase [1] of 0.14 µM. In addition, the MIC in data set [2] (setting [7]) was above 50 µM.

Take `Cc1cn(C2CCN(Cc3cccc(Oc4cccc(Cl)c4)n3)CC2)c(=O)[nH]c1=O`: the IC50 against Thymidylate kinase [1] was 0.45 µM; in the data set on MRC5, above 64 µM. Further, on Thymidylate kinase [5], the “inhibition (INH)” value was “Not Active”. Besides, the MIC in data set [2] (setting [7]) worked out at 31 µM.

Regarding `Cc1cn(C2CCN(Cc3cccc(Oc4ccc(Cl)c(Cl)c4)c3)CC2)c(=O)[nH]c1=O`, the IC50 is 1.1 µM against Thymidylate kinase [1] and 6.1 µM in the data set on MRC5. At Thymidylate kinase [5], the “inhibition (INH)” value is listed as “Not Active”. Also, the MIC in data set [2] (setting [7]) was found to be 12.5 µM.

For the compound `Cc1ccc(Oc2cccc(CN3CCC(n4cc(C)c(=O)[nH]c4=O)CC3)c2)cc1`, the 50% inhibitory concentration (IC50) at Thymidylate kinase [1] was 12 µM; in the data set on MRC5, above 64 µM. In addition, the figures for the MIC in data set [3] (setting [8]), in data set [4] and in data set [2] (setting [7]) were 15.6 µg/mL, 15.6 µg/mL and 31.2 µM, respectively.

Take `Cc1cn(C2CCN(Cc3cccc(Oc4ccc(F)c(F)c4)c3)CC2)c(=O)[nH]c1=O`: the IC50 at Thymidylate kinase [1] is 2.6 µM; in the data set with MRC5 it was above 64 µM. Also, the minimal inhibitory concentration (MIC) in data set [2] (setting [7]) is 19 µM.

For `Cc1cn(C2CCN(Cc3cccc(OC4CCCCC4)c3)CC2)c(=O)[nH]c1=O`, the figures for the IC50 against Thymidylate kinase [1] and in the data set with MRC5 were 42 µM and 23.6 µM, respectively. Further, the MIC in data set [2] (setting [7]) came out at 37 µM.

On to `Cc1cn(C2CCN(Cc3cncc(Oc4cccc(OC(F)(F)F)c4)c3)CC2)c(=O)[nH]c1=O`, for which the 50% inhibitory concentration (IC50) against Thymidylate kinase [1] was 0.81 µM; in the data set with MRC5, above 64 µM. In addition, in data set [2] (setting [7]), the MIC worked out at 37 µM.

Turning to `Cc1cn(C2CCN(Cc3cc(Oc4cccc(Cl)c4)ccn3)CC2)c(=O)[nH]c1=O`, the figures for the IC50 on Thymidylate kinase [1] and in the data set with MRC5 were 2.8 µM and above 64 µM, respectively. Besides, in data set [2] (setting [7]), the MIC is above 50 µM.

Regarding `Cc1cn(C2CCN(Cc3cccc(Oc4cccc(OC(F)(F)F)c4)c3)CC2)c(=O)[nH]c1=O`, the results for the IC50 against Thymidylate kinase [1] and in the data set on MRC5 were 0.65 µM and 5.26 µM, respectively. Further, the “inhibition (INH)” value on Thymidylate kinase [5] is given as “Not Active”. For the same compound, the MIC in data set [2] (setting [7]) was 25 µM.

Turning to `Cc1cn(C2CCN(Cc3cncc(Oc4cc(Cl)cc(Cl)c4)c3)CC2)c(=O)[nH]c1=O`, the figures for the IC50 against Thymidylate kinase [1] and with MRC5 were 0.22 µM and above 64 µM, respectively. The “inhibition (INH)” value at Thymidylate kinase [6] is recorded as “Not Active”. Besides, in data set [2] (setting [7]), the MIC was found to be 43 µM.

Turning to `Cc1cn(C2CCN(Cc3cccc(Oc4ccccc4)n3)CC2)c(=O)[nH]c1=O`, the figures for the minimum inhibitory concentration (MIC) in data set [3] (setting [8]), in data set [4] and in data set [2] (setting [7]) were 125 µg/mL, 62.5 µg/mL and above 50 µM, respectively. Moreover, the IC50 in the data set on MRC5 is above 64 µM.

As for `Cc1cn(C2CCN(Cc3cccc(Oc4ccc(O)cc4)n3)CC2)c(=O)[nH]c1=O`, half-maximal inhibition against Thymidylate kinase [1] (IC50) was put at 1.1 µM. Further, in data set [2] (setting [7]), the minimal inhibitory concentration (MIC) is above 50 µM.

Regarding `Cc1cn(C2CCN(Cc3ccnc(Oc4cccc(Cl)c4)c3)CC2)c(=O)[nH]c1=O`, the values for the concentration for half-maximal inhibition (IC50) against Thymidylate kinase [1] and in the data set on MRC5 were 3.1 µM and above 64 µM, respectively. Further, the MIC was found to be 31.25 µg/mL in data set [3], 15.6 µg/mL in data set [4] and 37 µM in data set [2] (setting [7]).

With `Cc1cn(C2CCN(Cc3cccc(Oc4ccccc4C(=O)O)n3)CC2)c(=O)[nH]c1=O`, 25 µM corresponded to half-maximal inhibition at Thymidylate kinase [1] (IC50). The minimal inhibitory concentration (MIC) in data set [2] (setting [7]) was above 50 µM.

With `Cc1cn(C2CCN(Cc3cncc(Oc4ccccc4)c3)CC2)c(=O)[nH]c1=O`, the IC50 is 6.4 µM at Thymidylate kinase [1] and above 64 µM with MRC5. For the same compound, the minimum inhibitory concentration (MIC) in data set [2] (setting [7]) worked out at 37 µM.

As to `Cc1cn(C2CCN(Cc3cccc(Oc4cccc(O)c4)c3)CC2)c(=O)[nH]c1=O`, the IC50 in the data set on MRC5 was above 64 µM.

Regarding `Cc1cn(C2CCN(Cc3cncc(Oc4cccc(Cl)c4)c3)CC2)c(=O)[nH]c1=O`, the values for the IC50 on Thymidylate kinase [1] and with MRC5 were 0.77 µM and above 64 µM, respectively. For the same compound, the MIC in data set [2] (setting [7]) was 31 µM.

With `Cc1cccc(Oc2cccc(CN3CCC(n4cc(C)c(=O)[nH]c4=O)CC3)c2)c1`, the half-maximal inhibitory concentration (IC50) is 26 µM on Thymidylate kinase [1] and above 64 µM with MRC5. For the same compound, the MIC in data set [2] (setting [7]) came out at 37 µM.

Turning to `Cc1cn(C2CCN(Cc3cc(Oc4cc(Cl)cc(Cl)c4)ccn3)CC2)c(=O)[nH]c1=O`, at Thymidylate kinase [1], half-maximal inhibition (IC50) required 0.6 µM. The MIC in data set [2] (setting [7]) was found to be 34 µM.

Consider `Cc1cn(C2CCN(Cc3cccc(Oc4cc(Cl)cc(Cl)c4)c3)CC2)c(=O)[nH]c1=O`, for which the results for the IC50 against Thymidylate kinase [1] and with MRC5 were 0.12 µM and 6.73 µM, respectively. The values for the minimum inhibitory concentration (MIC) in data set [3] (setting [8]), in data set [4] and in data set [2] (setting [7]) were 7.8 µg/mL, 7.8 µg/mL and 12.5 µM, respectively. Moreover, the “inhibition (INH)” value against Thymidylate kinase [5] is “Not Active”.

Take `Cc1cn(C2CCN(Cc3cccc(Oc4ccccn4)c3)CC2)c(=O)[nH]c1=O`: the results for the 50% inhibitory concentration (IC50) against Thymidylate kinase [1] and with MRC5 were 41 µM and above 64 µM, respectively. Also, the MIC in data set [2] (setting [7]) was above 50 µM.
